Test results reported in PubChem BioAssay (NCI).
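Protocol summary: plate cells (96-well), add compound at 5 concentrations, incubate 48 h, interpolate endpoints linearly. The concentration for full growth arrest is given as TGI.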

Columns and labels:
Experiment in all cases: NCI tumour cell line growth inhibition, 48 h
UACC-257 melanoma = test system: UACC-257 melanoma
TK-10 renal = test system: TK-10 renal
HL-60(TB) leukemia = test system: HL-60(TB) leukemia
KM12 colon = test system: KM12 colon
LOX IMVI melanoma = test system: LOX IMVI melanoma
786-0 renal = test system: 786-0 renal
SK-MEL-2 melanoma = test system: SK-MEL-2 melanoma
HCT-15 colon = test system: HCT-15 colon
PC-3 prostate = test system: PC-3 prostate
SR leukemia = test system: SR leukemia
MDA-N = test system: MDA-N
SW-620 colon = test system: SW-620 colon
K-562 leukemia = test system: K-562 leukemia
T-47D breast = test system: T-47D breast
OVCAR-3 ovarian = test system: OVCAR-3 ovarian
NCI-H226 lung = test system: NCI-H226 lung
RXF 393 renal = test system: RXF 393 renal
IGROV1 ovarian = test system: IGROV1 ovarian
SNB-75 CNS = test system: SNB-75 CNS
ACHN renal = test system: ACHN renal
HCT-116 colon = test system: HCT-116 colon
CCRF-CEM leukemia = test system: CCRF-CEM leukemia
MDA-MB-435 = test system: MDA-MB-435
A498 renal = test system: A498 renal
MCF7 breast = test system: MCF7 breast
A549 NSCLC = test system: A549 NSCLC
NCI-H460 lung = test system: NCI-H460 lung
SK-MEL-28 melanoma = test system: SK-MEL-28 melanoma
SF-268 CNS = test system: SF-268 CNS
UO-31 renal = test system: UO-31 renal
HS 578T breast = test system: HS 578T breast
DU-145 prostate = test system: DU-145 prostate
NCI-H522 lung = test system: NCI-H522 lung
SF-295 CNS = test system: SF-295 CNS
HOP-62 NSCLC = test system: HOP-62 NSCLC
OVCAR-5 ovarian = test system: OVCAR-5 ovarian
MOLT-4 leukemia = test system: MOLT-4 leukemia
NCI-H23 lung = test system: NCI-H23 lung
SK-MEL-5 melanoma = test system: SK-MEL-5 melanoma
UACC-62 melanoma = test system: UACC-62 melanoma
M14 melanoma = test system: M14 melanoma
EKVX NSCLC = test system: EKVX NSCLC
SN12C renal = test system: SN12C renal
COLO 205 colon = test system: COLO 205 colon
MDA-MB-231 breast = test system: MDA-MB-231 breast
U251 CNS = test system: U251 CNS
SK-OV-3 ovarian = test system: SK-OV-3 ovarian
BT-549 breast = test system: BT-549 breast
SNB-19 CNS = test system: SNB-19 CNS
RPMI-8226 leukemia = test system: RPMI-8226 leukemia
OVCAR-4 ovarian = test system: OVCAR-4 ovarian
NCI/ADR-RES ovarian = test system: NCI/ADR-RES ovarian
HT29 colon = test system: HT29 colon
MALME-3M melanoma = test system: MALME-3M melanoma

Measured: TGI

NC(=O)CNC(=O)[C@@H]1C[C@@H](OCCC(=O)O)CN1C(=O)OCc1ccccc1
> 100 µM: all assays above
